Reference: patent US9102623B2, “Pyridinecarboxamides, useful-plant-protecting composition comprising them and processes for their preparation and their use” (Bayer Cropscience AG, priority 2007, dated 2015)

What was measured:
corn = assay: Post-emergence safener action in corn with the herbicide tembotrione; format: in vivo; conditions: greenhouse, visual scoring of damage
From the text: (§1) The damage to the plants is scored visually using a scale of 0-100%, in comparison to control plants:
(§2) 0%=no noticeable effect compared to the untreated plant
(§3) 100%=the treated plants dies.
(§4) Seeds or rhizome pieces of monocotyledonous and dicotyledonous harmful plants and crop plants are placed in sandy loam soil in plastic pots, covered with soil and cultivated in the greenhouse under good growth conditions. Alternatively, harmful plants encountered in paddy rice cultivation are cultivated in pots in which the surface of the soil is covered by up to 2 cm of water. Three weeks after sowing, the test plants are treated at the three-leaf stage. The herbicide/safener active compound combinations according to the invention, formulated as emulsion concentrates, and in parallel tests the individual active compounds formulated in a corresponding manner, are sprayed at various dosages at a water application rate of […] (converted) onto the green parts of the plants, and, after the test plants were left to stand in the greenhouse for about 2 to 3 weeks under optimum growth conditions, the effect of the preparations is scored visually in comparison to untreated controls. In the case of rice or harmful plants encountered in the cultivation of rice, the active compounds are also added directly to the irrigation water (application analogously to the so-called granule application) or sprayed onto the plants and into the irrigation water. […]

barley = assay: Post-emergence safener action in barley with the herbicide mesosulfuron-methyl; format: in vivo; conditions: greenhouse, visual scoring of damage
From the text: as §1, §2, §3, §4

SMILES	safener action for the herbicide tembotrione (corn)	safener action for the herbicide mesosulfuron-methyl (barley)
CC(C)(C)CNC(=O)c1ccc(C(F)(F)C(F)(F)C(F)(F)F)[nH]c1=O [Compound 1619]	good safener action	–
COCC(C)NC(=O)c1ccc(C(F)(F)Cl)[nH]c1=O (centres unmarked) [Compound 178]	good safener action	good safener action
CC(C)NC(=O)c1ccc(C(F)(F)Cl)[nH]c1=O [Compound 118]	good safener action	–
CC(C)(C)CNC(=O)c1ccc(C(F)(F)F)[nH]c1=O [Compound 24]	good safener action	–
CCN(CC)C(=O)c1ccc(C(F)(F)F)[nH]c1=O [Compound 14]	good safener action	good safener action
C#CCNC(=O)c1ccc(C(F)(F)Cl)[nH]c1=O [Compound 153]	good safener action	good safener action
NC(=O)c1ccc(C(F)(F)Cl)[nH]c1=O [Compound 114]	good safener action	good safener action
CNC(=O)c1cc(Cl)c(C(F)(F)F)[nH]c1=O [Compound 456]	good safener action	–
C=CCNC(=O)c1ccc(C(F)(F)F)[nH]c1=O [Compound 34]	good safener action	good safener action
CCCC(C)NC(=O)c1ccc(C(F)(F)C(F)(F)C(F)(F)F)[nH]c1=O (centres unmarked) [Compound 1638]	good safener action	–
CCNC(=O)c1cc(Br)c(C(F)(F)F)[nH]c1=O [Compound 911]	good safener action	good safener action
CCCC(C)NC(=O)c1cc(Cl)c(C(F)(F)F)[nH]c1=O (centres unmarked) [Compound 498]	good safener action	good safener action
O=C(NC1CC1)c1ccc(C(F)(F)C(F)(F)C(F)(F)F)[nH]c1=O [Compound 1600]	good safener action	good safener action
C=CCN(CC=C)C(=O)c1ccc(C(F)(F)F)[nH]c1=O [Compound 36]	good safener action	good safener action
CC(C)NC(=O)c1ccc(C(F)(F)C(F)(F)Cl)[nH]c1=O [Compound 1485]	good safener action	–
COCC(C)NC(=O)c1ccc(C(F)(F)F)[nH]c1=O (centres unmarked) [Compound 64]	good safener action	good safener action
CCNC(=O)c1cc(Cl)c(C(F)(F)F)[nH]c1=O [Compound 457]	good safener action	good safener action
CC(C)CCNC(=O)c1ccc(C(F)(F)F)[nH]c1=O [Compound 32]	good safener action	–
O=C(c1ccc(C(F)(F)Cl)[nH]c1=O)N1CCOCC1 [Compound 214]	good safener action	good safener action
CC(C)NC(=O)c1ccc(C(F)(F)F)[nH]c1=O [Compound 4]	good safener action	–
CCC(CC)NC(=O)c1ccc(C(F)(F)C(F)(F)C(F)(F)F)[nH]c1=O [Compound 1646]	good safener action	–
CC(NC(=O)c1ccc(C(F)(F)Cl)[nH]c1=O)c1ccccc1 (centres unmarked) [Compound 210]	good safener action	–
CCN(C)C(=O)c1ccc(C(F)(F)F)[nH]c1=O [Compound 10]	good safener action	good safener action
CNC(=O)c1ccc(C(F)(F)C(F)(F)C(F)(F)F)[nH]c1=O [Compound 1596]	good safener action	–
CN(C)C(=O)c1ccc(C(F)(F)F)[nH]c1=O [Compound 9]	good safener action	good safener action
CCONC(=O)c1ccc(C(F)(F)F)[nH]c1=O [Compound 79]	good safener action	good safener action
COC(=O)CNC(=O)c1ccc(C(F)(F)F)[nH]c1=O [Compound 71]	good safener action	–

SMILES	safener action for the herbicide tembotrione (corn)	safener action for the herbicide mesosulfuron-methyl (barley)
CC(C)NC(=O)c1ccc(C(F)(F)C(F)(F)F)[nH]c1=O [Compound 345]	good safener action	good safener action
CN(C)/C=N/C(=O)c1ccc(C(F)(F)F)[nH]c1=O [Compound 105, N-[(Dimethylamino)methylene]-2-oxo-6-(trifluoromethyl)-1,2-dihydropyridine-3-carboxamide]	good safener action	good safener action
CCC(CC)NC(=O)c1cc(Br)c(C(F)(F)F)[nH]c1=O [Compound 960]	good safener action	good safener action
CCC(C)NC(=O)c1cc(Cl)c(C(F)(F)F)[nH]c1=O (centres unmarked) [Compound 496]	good safener action	good safener action
CCCNC(=O)c1ccc(C(F)(F)C(F)(F)C(F)(F)F)[nH]c1=O [Compound 1598, 6-(Heptafluoropropyl)-2-oxo-N-propyl-1,2-dihydropyridine-3-carboxamide]	good safener action	good safener action
C=CCNC(=O)c1ccc(C(F)(F)Cl)[nH]c1=O [Compound 148]	good safener action	good safener action
CCNC(=O)c1cc(Br)c(C(F)F)[nH]c1=O [Compound 1139]	good safener action	–
C=CCNC(=O)c1ccc(C(F)(F)C(F)(F)C(F)(F)F)[nH]c1=O [Compound 1629]	good safener action	–
CCC(CC)NC(=O)c1ccc(C(F)(F)F)[nH]c1=O [Compound 51]	good safener action	–
COCCCNC(=O)c1ccc(C(F)(F)F)[nH]c1=O [Compound 66]	good safener action	good safener action
C=CCNC(=O)c1cc(Br)c(C(F)(F)F)[nH]c1=O [Compound 943, N-Allyl-5-bromo-2-oxo-6-(trifluoromethyl)-1,2-dihydropyridine-3-carboxamide]	good safener action	good safener action
O=C(NCc1ccc(Cl)nc1)c1ccc(C(F)(F)F)[nH]c1=O [Compound 95]	good safener action	–
CCCNC(=O)c1cc(Br)c(C(F)(F)Cl)[nH]c1=O [Compound 1026]	good safener action	good safener action
O=C(NCC(F)(F)F)c1ccc(C(F)(F)Cl)[nH]c1=O [Compound 140]	good safener action	good safener action
O=C(NC1CCC1)c1ccc(C(F)(F)C(F)(F)Cl)[nH]c1=O [Compound 1488]	good safener action	–
COC(=O)CCNC(=O)c1ccc(C(F)(F)F)[nH]c1=O [Compound 75]	good safener action	–
C=CCNC(=O)c1cc(Cl)c(C(F)(F)F)[nH]c1=O [Compound 489]	good safener action	good safener action
CN(C)C(=O)c1ccc(C(F)(F)C(F)(F)C(F)(F)F)[nH]c1=O [Compound 1604]	good safener action	–
CC(C)NC(=O)c1cc(Br)c(C(F)(F)F)[nH]c1=O [Compound 913]	good safener action	good safener action
CC(C)NC(=O)c1ccc(C(F)(F)C(F)F)[nH]c1=O [Compound 1371]	good safener action	–
CCCC(C)NC(=O)c1ccc(C(F)(F)F)[nH]c1=O (centres unmarked) [Compound 43]	good safener action	–
O=C(NC1CCC1)c1cc(Br)c(C(F)(F)C(F)(F)C(F)(F)F)[nH]c1=O [Compound 1758]	good safener action	–
CCCCNC(=O)c1ccc(C(F)(F)F)[nH]c1=O [Compound 6]	good safener action	–
CC(C)CCNC(=O)c1ccc(C(F)(F)Cl)[nH]c1=O [Compound 146]	good safener action	good safener action
CC(C)NC(=O)c1ccc(C(F)(F)C(F)(F)C(F)(F)F)[nH]c1=O [Compound 1599]	good safener action	good safener action
NC(=O)c1cc(Br)c(C(F)(F)F)[nH]c1=O [Compound 909]	good safener action	good safener action
